Experimental data as given in US9707196B2, “Treatment agent and/or prophylactic agent for side effects of cancer drugs” (SBI Pharmaceuticals Co., Ltd., priority 2011, dated 2017).

Columns and labels:
[1] = tested on: T24 cells (human transitional cell bladder cancer cells); assay: Cell toxicity of cisplatin against T24 cells with or without ALA (WST-8, Cell Counting Kit-8); format: cell-based; settings: ALA hydrochloride salt 200 μM + sodium ferrous citrate 100 μM, any timing, FIG. 8
Description: (§1) It was validated whether or not ALA administration has an influence on the cell toxicity (anticancer effect) of anticancer agent against cancer cells.
(§2) The following cancer cells were employed in this experiment: T24 cells (human transitional cell bladder cancer cells) and 253J-BV cells (human urinary tract epithelium cancer cells). […] ALA hydrochloride salt was employed as ALA. In addition, sodium ferrous citrate was administered together with ALA administration.
(§3) Cell toxicity at each concentration was compared in the following Groups I to IV.
(§4) Group I: “No addition group,” i.e. the group with no ALA administered
(§5) Group II: “Pre-administration group,” i.e. the group with ALA administered only “during preculture”
(§6) (1) T24 cells (human transitional cell bladder cancer cells) or 253J-BV cells (human urinary tract epithelium cancer cells) were cultured with a 10 cm dish in DMEM medium comprising 10% FBS to a subconfluent state. They were then collected by trypsin treatment.
(§7) (2) For test groups Group I (no addition group) and Group III (simultaneous administration group), the cells collected in (1) were suspended to a density of 50000 cells/ml in DMEM medium comprising 10% FBS. […]

SD rats [2] = assay: Side effects accompanying cisplatin administration in rats, with or without ALA (Example 1: survival, kidney HE staining, hair luster, stool state, activity); format: in vivo, rat; settings: for Damage to the kidney (HE staining, Day 16): FIG. 2
Description: Forty-four 6 weeks-old SD rats (male) were purchased from Japan SLC, Inc. They were used for experiments after conditioning for 7 days after purchase.
The experiment duration was a total of 16 days, and experiment groups were divided into the following 5 groups I to V according to the ALA administration condition. […] CDDP administration dose was 8.0 mg/kg of body weight, and each rat was intraperitoneally administered. Saline was administered instead of cisplatin to Group I as the negative control group. ALA was also administered to Groups III, […], and V according to the following schedule. On the other hand, no ALA was administered to the positive control group (Group II). ALA administration to Groups III, IV, and V was performed by daily oral administration of 10 mg/kg of body weight of ALA hydrochloride salt+15.7 mg/kg of body weight of sodium ferrous citrate (dissolved in distilled water and sodium bicarbonate).
(ALA Administration Conditions of Groups I to V)
Group I (negative control group): Saline was administered on Day 6 from the start of experiment. They were otherwise kept as usual. n=4
Group II (positive control group): CDDP was administered on Day 6 from the start of experiment. They were otherwise kept as usual. n=10
Group III (“pre-administration group”): ALA was administered for a total of 5 days from the starting day of experiment to Day 5. CDDP was also administered on Day 6. They were otherwise kept as usual. n=10
Group IV (“post-administration group”): On Day 6 from the start of experiment, ALA was administered, and then CDDP was administered. ALA was also administered for 10 days from Day 6 to Day 15. They were otherwise kept as usual. n=9
Group V (“full administration group”): ALA was administered for 15 days from the starting day of experiment to Day 15. On Day 6, ALA was administered, and then CDDP was administered. n=9
Blood was collected every two days for 15 days from the starting day of experiment to Day 15. Observation of hair luster, stool state, and activity of rats was also carried out. Each rat was also dissected on Day 16, and the kidney was resected. Kidney sections were prepared after resection, and observed under a microscope after HE staining.
Side effects were strongly observed from Day 9 to Day 13 from the starting day of experiment. Accordingly, the state on Days 9, 11, and 13 were scored and evaluated. Hair luster here evaluates the side effect related to skin symptoms. Stool state evaluates the side effect related to the gastrointestinal system. Activity evaluates the side effect related to general symptoms, in particular evaluates the side effect related to malaise.
Each item was evaluated for each mouse by the following criteria, and is the numerical value of the sum of the three days (Days 9, 11, and 13) divided by the number of evaluation subject mice.
5: Very good, 4: ordinarily state, 3: slightly poor, 2: poor, and 1: death
5: Ordinarily stool, 4: small amount of stool, 3: slight diarrhea, 2: diarrhea, and 1: death
5: Ordinarily state, 4: weak movement, 3: slight movement, 2: no movement, and 1: death

[3] = tested on: 253J-BV cells (human urinary tract epithelium cancer cells); assay: Cell toxicity of cisplatin against 253J-BV cells with or without ALA (WST-8, Cell Counting Kit-8); format: cell-based; settings: ALA hydrochloride salt 200 μM + sodium ferrous citrate 100 μM, any timing, FIG. 9
Description: as §1, §2, §3, §4, §5, §6, §7

SD rats [4] = assay: Side effects on the kidney (nephrotoxicity) and weight loss accompanying cisplatin administration in rats, with or without ALA (Example 2); format: in vivo, rat; settings: for Effect on side effects of anticancer agent on the kidney: FIGS. 4 to 6
Description: Serum creatinine and urea nitrogen value (BUN) were measured from blood samples. Moreover, urine protein was measured from urine samples.
Weight loss which is a side effect on general symptoms as well as a side effect related to the gastrointestinal system was also observed at the same time.
Forty-six 6 weeks-old SD rats (male) were purchased from Japan SLC, Inc. They were conditioned for 7 days after purchase. Body weight measurement, blood collection, and urine collection of each rat were performed at the end of the conditioning period. The experiment was started on the next day with 44 rats. Two individuals that had poor serum creatinine, urea nitrogen value (BUN), and urine protein value at the measurement after conditioning were excluded from the experiment.
In this experiment, experiment groups were divided into the following 4 groups I to IV according to the ALA administration condition. The experiment was otherwise performed similarly to Example 1.
Group I (negative control group): Saline was administered on Day 6 from the start of experiment. They were otherwise kept as usual. n=8
Group II (positive control group): CDDP was administered on Day 6 from the start of experiment. They were otherwise kept as usual. n=14
Group III (“post-administration group”): On Day 6 from the start of experiment, ALA was administered, and then CDDP was administered. ALA was also administered for 10 days from Day 6 to Day 15. They were otherwise kept as usual. n=10
Group IV (“full administration group”): ALA was administered for 15 days from the starting day of experiment to Day 15. On Day 6, ALA was administered, and then CDDP was administered. n=11
The body weight of each rat was measured, and blood and urine collection was carried out on starting day of experiment, Days 6, 7, 9, 11, 13, and 15. The collected blood samples were used for measuring serum creatinine and urea nitrogen value (BUN). In addition, the collected urine samples were used for measuring urine protein. Each rat was also dissected on Day 16, and the kidney was resected and observed.

[5] = Case of an advanced colon cancer patient taking aminolevulinic acid phosphate salt and sodium ferrous citrate concurrently with anticancer agent therapy (Example 4); format: in vivo, human; settings: one patient
[6] = Group III (pre-administration): ALA hydrochloride salt 10 mg/kg + sodium ferrous citrate 15.7 mg/kg oral daily to Day 5, CDDP 8.0 mg/kg i.p. Day 6, sum of scores of Days 9, 11, 13 per animal
[7] = Group IV (post-administration): ALA hydrochloride salt 10 mg/kg + sodium ferrous citrate 15.7 mg/kg oral daily Day 6 to Day 15, CDDP 8.0 mg/kg i.p. Day 6, sum of scores of Days 9, 11, 13 per animal
[8] = Group V (full administration): ALA hydrochloride salt 10 mg/kg + sodium ferrous citrate 15.7 mg/kg oral daily from starting day to Day 15, CDDP 8.0 mg/kg i.p. Day 6, sum of scores of Days 9, 11, 13 per animal
[9] = Groups III, IV and V (ALA + CDDP) versus Group II, FIG. 1

## NCC(=O)CCC(=O)O [ALA, 5-aminolevulinic acid]
[1]
  Influence of ALA administration on anticancer effect of cisplatin: hardly attenuated
SD rats [2]; ALA-administered groups + CDDP
  Damage to the kidney (HE staining, Day 16): alleviated the damage to the kidney
SD rats [2]; Group III (pre-administration) and Group IV (post-administration) + CDDP
  Damage to the kidney (HE staining, Day 16): a certain effect
SD rats [2]; Group III (pre-administration) or Group IV (post-administration) + CDDP, FIG. 1
  Rat survival rate: a certain suppression effect
SD rats [2]; [6]
  Activity (final evaluation): 8.10
  Hair luster (final evaluation): 8.10
  Overall evaluation (final evaluation): 7.50
  Stool state (final evaluation): 8.90
SD rats [2]; [7]
  Activity (final evaluation): 9.56
  Hair luster (final evaluation): 8.89
  Overall evaluation (final evaluation): 8.78
  Stool state (final evaluation): 10.78
SD rats [2]; Group V (full administration) + CDDP
  Damage to the kidney (HE staining, Day 16): the most effective
SD rats [2]; [8]
  Activity (final evaluation): 11.33
  Hair luster (final evaluation): 11.33
  Overall evaluation (final evaluation): 9.67
  Stool state (final evaluation): 13.33
SD rats [2]; Group V (full administration, ALA throughout) + CDDP, FIG. 1
  Rat survival rate: highest survival rate
SD rats [2]; [9]
  Rat survival rate until Day 16: reduction in the survival rate until Day 16 could be suppressed
  Timing of the start of reduction in the survival rate: the timing of the start of reduction in the survival rate was delayed
[3]
  Influence of ALA administration on anticancer effect of cisplatin: hardly attenuated
SD rats [4]; Group III (post-administration) + CDDP, FIG. 3
  Effect on weight loss: a certain effect
SD rats [4]; Group III (post-administration) + CDDP
  Effect on side effects of anticancer agent on the kidney: a certain effect
SD rats [4]; Group III (post-administration) and Group IV (full administration), ALA + CDDP, FIG. 3
  Decrease in body weight: decreased in body weight due to the side effects from anticancer agent was suppressed
SD rats [4]; Group III and Group IV, ALA + CDDP, FIG. 3
  Re-increase of body weight: re-increase of body weight was observed on Day 5 and after
SD rats [4]; Group III and Group IV, ALA + CDDP, slight increase on Day 3, FIG. 6
  Urine protein value: a value not much different from the negative control group was maintained
SD rats [4]; Group III and Group IV, ALA + CDDP, slight increase on Day 5, FIG. 4
  Serum creatinine value: a value not much different from the negative control group was maintained
SD rats [4]; Group III and Group IV, ALA + CDDP, slight increase on Day 5, FIG. 5
  Urea nitrogen value (BUN): a value not much different from the negative control group was maintained
SD rats [4]; Group IV (full administration) + CDDP, FIG. 3
  Effect on weight loss: the most effective
SD rats [4]; Group IV (full administration) + CDDP
  Effect on side effects of anticancer agent on the kidney: the most effective

## N.N.[Cl][Pt][Cl] [cisplatin, reference compound]
SD rats [2]; Group II (positive control): CDDP 8.0 mg/kg i.p. Day 6, no ALA, FIG. 1
  Rat survival rate: reduction in the survival rate was seen on Day 9
SD rats [2]; Group II (positive control): CDDP 8.0 mg/kg i.p. on Day 6, no ALA, sum of scores (5 best, 1 death) of Days 9, 11, 13 divided by number of animals
  Hair luster (final evaluation): 7.80

## aminolevulinic acid phosphate salt
[5]; FOLFOX, FOLFIRI and Avastin with oral 50 mg aminolevulinic acid phosphate salt + 57.4 mg sodium ferrous citrate per day
  Time for which anticancer agent therapy could be continued after the surgery: one year
[5]; Jan. 28, 2011, about 1 year and 5 months after starting oral 50 mg aminolevulinic acid phosphate salt + 57.4 mg sodium ferrous citrate per day, just before surgery 9.80
  Hemoglobin: 12.20 g/dL
[5]; Jan. 28, 2011, about 1 year and 5 months after starting oral 50 mg aminolevulinic acid phosphate salt + 57.4 mg sodium ferrous citrate per day, just before surgery 13.20
  Number of Leukocytes: 6200 µL⁻¹
[5]; Jan. 28, 2011, about 1 year and 5 months after starting oral 50 mg aminolevulinic acid phosphate salt + 57.4 mg sodium ferrous citrate per day, just before surgery (Aug. 19, 2009) 2.97
  Number of Erythrocytes: 3.44e+06 µL⁻¹
[5]; about 1 year and 5 months after starting intake, with sodium ferrous citrate
  Anemia improvement effect: anemia as a side effect of administration of anticancer agent is improved
[5]; declared life expectancy 3 months, oral 50 mg aminolevulinic acid phosphate salt + 57.4 mg sodium ferrous citrate per day
  Survival after surgery: one and a half years
